Experimental data published in US5688943A, “Benzodiazepine derivatives useful as CCK-receptor antagonists” (Yamanouchi Pharmaceutical Co., Ltd., priority 1992, dated 1997).
pIC50: −log10 of the molar value.

Assays:
[1] = tested on: pentagastrin-stimulated gastric acid secretion; assay: Measurement of inhibition of pentagastrin-stimulated gastric acid secretion in rat; assay type: in vivo; settings: anaesthetised rat, test drug intravenous, pentagastrin 15 μg/Kg/hr i.v.; read-out: ED50, reduction of pentagastrin-stimulated gastric acid secretion to 50% of the maximum level
Text: Measurement of inhibition of pentagastrin-stimulated gastric acid secretion in rat
A cannula was inserted into the trachea of a rat anaesthetised with urethane (intraperitoneally administered, 1.25 g/Kg), its abdominal wall was incised to expose the gastric and duodenal portions, and a polyethylene cannula was set in the anterior stomach after ligation of the cardia. The duodenum was then subjected to slight section, a polyethylene cannula was inserted from the incised portion toward the stomach, and the pylorus was ligated to fix the cannula.
Physiological saline (with pH adjusted to 7.0) was perfused from the anterior stomach toward the pylorus at a rate of 3 ml/min, and the gastric-acid secretion was measured by continuous titration of the perfusate by the use of a pH-stat (AUT-201; product of Toa Electronics, Ltd.). The continuous titration was carried out by using 25 mM NaOH solution until the pH reached 7.0, and the result was expressed as the amount of gastric acid secreted for every 10 minutes (μEq /10 min.). Pentagastrin was intravenously administered at a rate of 15 μg/Kg/hr.
The secretion of gastric acid increased upon administration of pentagastrin, reaching the maximum level after 60 minutes and stably maintaining this level after that. A test drug was then intravenously administered, and the secretion of gastric acid was measured; ED50 values were determined, being the amount of the drug required to reduce the amount of secreted gastic acid down to 50% of the maximum level.

CCK-B receptors = target: T1, CCK-B receptors (Rattus norvegicus, UniProt P30553); assay: Measurement of binding affinity for CCK-B receptors ([125I]BH-CCK-8, rat brain membranes); set-up: species or system SD rats; settings: ratio IC50 (CCK-A)/IC50 (CCK-B)
T1 construct: the whole brain was immediately excised from each of the rats and homogenized; from tissue; host or cells: SD rat whole brain membranes
T1 sequence (P30553 whole entry): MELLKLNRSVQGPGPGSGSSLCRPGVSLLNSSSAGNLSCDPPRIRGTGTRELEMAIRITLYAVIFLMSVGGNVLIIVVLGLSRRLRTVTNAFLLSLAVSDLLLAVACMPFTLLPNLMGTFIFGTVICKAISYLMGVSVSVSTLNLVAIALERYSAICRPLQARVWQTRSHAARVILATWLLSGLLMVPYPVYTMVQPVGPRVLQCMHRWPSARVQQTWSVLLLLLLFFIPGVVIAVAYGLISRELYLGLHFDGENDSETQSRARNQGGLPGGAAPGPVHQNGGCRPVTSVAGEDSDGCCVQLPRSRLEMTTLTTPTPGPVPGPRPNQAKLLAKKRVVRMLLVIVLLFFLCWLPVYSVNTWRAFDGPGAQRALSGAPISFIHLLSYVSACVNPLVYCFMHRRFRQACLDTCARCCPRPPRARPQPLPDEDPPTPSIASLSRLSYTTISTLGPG
Experimental: Measurement of binding affinity for CCK-B receptors
About 100 SD rats were decapitated without anaesthesia, the whole brain was immediately excised from each of the rats and homogenized in 10-fold volume of 0.32M aqueous solution of sucrose by the use of a Teflon-coated homogenizer, the homogenate thus obtained was centrifuged for ten minutes at 900 g by the use of a cooled centrifuge, and the supernatant was further centrifuged for 15 minutes at 11500 g. The precipitate thus obtained was dispersed in 50 mM Tris-HCl buffer (pH 7.4) containing 0.08% Triton X-100, this suspension was allowed to stand for 30 minutes and again centrifuged for 15 minutes at 11500 g, the precipitate thus obtained was washed twice with 5 mM Tris-HCl buffer and twice with 50 mM Tris-HCl buffer in that order with centrifugal separation, the washed precipitate was suspended in 50 mM Tris-HCl buffer, and the suspension thus obtained was stored at -80° C. until the membrane preparation was required.
The membrane preparations were warmed to room temperature, diluted with 10 mM HEPES buffer (containing 130 mM NaCl, 5 mM MgCl2, 1 mM EGTA and 0.25 mg/ml bacitracin; pH 6.5) and incubated at 25° C. for 120 minutes in the presence of [^125 I]BH-CCK-8 and the test compound, then separated by suction filtration. Non-specific binding was determined in the presence of 1 μM CCK-8. The amount of labelled ligand bound to the receptor was measured by the use of a γ-counter; IC50 values were determined, being that concentration of test compound required to inhibit specific binding by 50%.
(§1) A high affinity for the CCK-A receptor in a gastrin/CCK-B antagonist is thought to be undesirable as it may lead to side-effects such as cholestasis and gall stone formation during therapy. Therefore it is preferable for the therapeutic agent to be selective for the CCK-B receptor. This selectivity is expressed by the ratio IC50 (CCK-A)/IC50 (CCK-B); the higher the value of this ratio the better is the selectivity.

CCK-A receptors = target: T2, CCK-A receptors (Rattus norvegicus, UniProt P30551); assay: Measurement of binding affinity for CCK-A receptors ([3H]L-364,718, rat pancreas membranes); set-up: species or system SD rat; settings: [3H]L-364,718, 37° C., 30 minutes, read-out: Receptor binding affinity IC50, CCK-A
T2 construct: The pancreas of an SD rat was homogenized; from tissue; host or cells: SD rat pancreas membranes
T2 sequence (P30551 1-444): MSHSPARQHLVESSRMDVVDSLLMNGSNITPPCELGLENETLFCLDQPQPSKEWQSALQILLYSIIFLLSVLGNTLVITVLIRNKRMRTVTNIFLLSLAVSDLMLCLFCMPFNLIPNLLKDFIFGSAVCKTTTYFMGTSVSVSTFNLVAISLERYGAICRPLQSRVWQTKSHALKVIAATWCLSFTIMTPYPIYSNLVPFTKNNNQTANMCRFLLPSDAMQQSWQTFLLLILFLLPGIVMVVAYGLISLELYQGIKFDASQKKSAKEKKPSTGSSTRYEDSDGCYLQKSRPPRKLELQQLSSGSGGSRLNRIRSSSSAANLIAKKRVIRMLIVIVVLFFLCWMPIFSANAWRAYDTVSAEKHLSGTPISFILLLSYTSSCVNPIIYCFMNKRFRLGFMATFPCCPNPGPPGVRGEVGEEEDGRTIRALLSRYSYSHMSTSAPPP
Experimental: Measurement of binding affinity for CCK-A receptors
The pancreas of an SD rat was homogenized in a 20-fold volume of 50 mM Tris-HCl buffer (pH 7.7) by the use of a Polytrone-type homogenizer, the homogenate was twice centrifuged for 10 minutes at 50000 g by the use of an ultra-centrifuge, the precipitate thus obtained was suspended in a 40-fold volume of 50 mM Tris-HCl buffer (containing 0.2% BSA, 5 mM MgCl2, 0.1 mg/ml bacitracin and 5 mM DTT; pH 7.7), and the suspension was stored at -80° C. until the membrane preparations were required.
The membrane preparations were then warmed to room temperature, diluted 1:10 with the buffer and incubated at 37° C. for 30 minutes in the presence of [^3 H]L-364,718 and the test compound then separated by suction filtration. Non-specific binding was determined in the presence of 1 μM L-364,718. The amount of labelled ligand bound to the receptor was measured by the use of a liquid scintillation counter; IC50 values were determined, being that concentration of test compound required to inhibit specific binding by 50%
as §1

SMILES | ED50 [1] [µmol/kg] | A/B Ratio (CCK-B receptors) | pIC50 (CCK-A receptors)
Cc1cccc(NC(=O)N[C@@H]2N=C(c3ccccc3)c3ccccc3N(C)C2=O)c1 [reference compound] | 4.2 | – | –
Cc1cccc(NC(=O)NC2N=C(c3ccccc3)c3ccccc3N(CC(=O)C3CCCCC3)C2=O)c1 (racemic) [Example 7, N-((3RS)-1-Cyclohexylcarbonylmethyl-2,3-dihydro-2-oxo-5-phenyl-1H-1,4-benzodiazepin-3-yl)-N'-(3-methylphenyl)urea] | 0.047 | – | –
Cc1cccc(NC(=O)NC2N=C(c3ccccc3)c3ccccc3N(CC(=O)C3CCCC3)C2=O)c1 (racemic) [Example 4, N-((3RS)-1-Cyclopentylcarbonylmethyl-2,3-dihydro-2-oxo-5-phenyl-1H-1,4-benzodiazepin-3-yl)-N'-(3-methylphenyl)urea] | 0.016 | 1,900 | 6.36
Cc1cccc(NC(=O)NC2N=C(c3ccccc3)c3ccccc3N(CC(=O)C3CCCCCC3)C2=O)c1 (racemic) [Example 5, N-((3RS)-1-Cycloheptylcarbonylmethyl-2,3-dihydro-2-oxo-5-phenyl-1H-1,4-benzodiazepin-3-yl)-N'-(3-methylphenyl)urea] | 0.018 | – | –
